According to patent US20100028889A1, “COMPANION DIAGNOSTIC ASSAYS FOR CANCER THERAPY” (ABBOTT LABORATORIES, priority 2006, published 2010):
pEC50: −log10 of the molar value. Read-outs that look alike come from different tables or passages of the source.

Tests used:
Assay type in all cases: cell-based, human
SCLC cell lines = test: categorisation of the SCLC cell line panel by EC50; conditions: EC50 less than or equal to 4.1 μM
Procedure: (§1) Cells were treated at 10,000 or 50,000 cells per well for adherent or suspension cells, respectively, in 96-well microtiter plates in the presence of 10% human serum for 48 hours with or without ABT-263, in a humidified chamber with 5% CO2. ABT-263 was synthesized as previously described in Tse, C., Shoemaker, A. R., Adickes, J., et al., “ABT-263: a potent and orally bioavailable Bcl-2 family inhibitor,” Cancer Res 2008; 68: 3421-3428; and Oltersdorf, T., Elmore, S. W., Shoemaker, A. R., et al., “An inhibitor of Bcl-2 family proteins induces regression of solid tumours,” Nature 2005; 435: 677-681, and cell cytotoxicity EC50 values were assessed using CellTiter Glo (Promega, Madison Wis.).
o divide the training set cell lines into sensitive and resistant categories, a bivariate fit curve was generated for the ABT-263 EC50 versus rank and fitted with a smoothing spline (lambda=1), and the maximum increase in the slope was approximately 5 μM for both sets. […]
Division of cell lines into sensitive and resistant categories. […] To identify gene expression patterns that can predict sensitivity to ABT-263, as well as genes that might contribute to resistance to treatment, RNA expression profiles for a panel of SCLC cell lines were determined, as well as a panel of leukemia and lymphoma cell lines. […]

JVM-13 = test: cell cytotoxicity EC50, CellTiter Glo, Mantle Cell Lymphoma cell line
Procedure: (§2) The SCLC and leukemia/lymphoma cell lines listed below were obtained from the American Type Culture Collection (Manassas, Va.), Deutsche Sammlung von Mikroorganismen und Zellkulturen (DSMZ, Braunsweig, Germany), or were the generous gift from Dr. Louis Staudt (National Cancer Institute) and were cultured as described in Tse, C., Shoemaker, A. R., Adickes, J., et al., “ABT-263: a potent and orally bioavailable Bcl-2 family inhibitor,” Cancer Res 2008; 68: 3421-3428; and Tahir, S. K., Yang, X., Anderson, M. G., et al., “Influence of Bcl-2 family members on the cellular response of small-cell lung cancer cell lines to ABT-737,” Cancer Res 2007; 67: 1176-1183.
as §1

JeKo-1 = test: as above
Procedure: as §2, §1

Mino = test: as above
Procedure: as §2, §1

NCI-H446 = test: cell cytotoxicity EC50, CellTiter Glo, SCLC cell line
Procedure: as §2, §1

NCI-H378 = test: as above
Procedure: as §2, §1

NCI-H1105 = test: as above
Procedure: as §2, §1

NCI-H128 = test: as above
Procedure: as §2, §1

NCI-H1618 = test: as above
Procedure: as §2, §1

DMS153 = test: as above
Procedure: as §2, §1

NCI-H847 = test: as above
Procedure: as §2, §1

NCI-H69 = test: as above
Procedure: as §2, §1

NCI-H196 = test: as above
Procedure: as §2, §1

DMS 53 = test: as above
Procedure: as §2, §1

NCI-H1672 = test: as above
Procedure: as §2, §1

NCI-H82 = test: as above
Procedure: as §2, §1

NCI-H524 = test: as above
Procedure: as §2, §1

NCI-H146 = test: as above
Procedure: as §2, §1

[1] = 10% human serum, 48 hours, read-out: EC50
[2] = Homo sapiens, read-out: Response Designation

CC1(C)CCC(c2ccc(Cl)cc2)=C(CN2CCN(c3ccc(C(=O)NS(=O)(=O)c4ccc(N[C@H](CCN5CCOCC5)CSc5ccccc5)c(S(=O)(=O)C(F)(F)F)c4)cc3)CC2)C1 [ABT-263, N-(4-(4-((2-(4-chlorophenyl)-5,5-dimethyl-1-cyclohex-1-en-1-yl)methyl)piperazin-1-yl)benzoyl)-4-(((1R)-3-(morpholin-4-yl)-1-((phenylsulfanyl)methyl)propyl)amino)-3-((trifluoromethyl)sulfonyl)benzenesulfonamide]
SCLC cell lines categorized as being sensitive (SCLC cell lines): 26 out of 36 | pEC50 (JVM-13; Homo sapiens, JVM13, read-out: Response Designation): < 5.32 | pEC50 (JVM-13; JVM13, 10% human serum, 48 hours, read-out: EC50): 4.89 | pEC50 (JeKo-1; [1]): 5.76 | pEC50 (JeKo-1; [2]): ≥ 5.32 | pEC50 (Mino; Homo sapiens, MINO, read-out: Response Designation): ≥ 5.32 | pEC50 (Mino; Mino, 10% human serum, 48 hours, read-out: EC50): 7.48 | pEC50 (NCI-H446; [1]): 5.39 | pEC50 (NCI-H446; [2]): ≥ 5.39 | pEC50 (NCI-H378; [1]): < 4.30 | pEC50 (NCI-H378; [2]): < 5.39 | pEC50 (NCI-H1105; [1]): 6.15 | pEC50 (NCI-H1105; [2]): ≥ 5.39 | pEC50 (NCI-H128; [1]): 5.60 | pEC50 (NCI-H128; [2]): ≥ 5.39 | pEC50 (NCI-H1618; [1]): 5.85 | pEC50 (NCI-H1618; [2]): ≥ 5.39 | pEC50 (DMS153; DMS-153, 10% human serum, 48 hours, read-out: EC50): 4.96 | pEC50 (DMS153; Homo sapiens, DMS-153, read-out: Response Designation): < 5.39 | pEC50 (NCI-H847; [1]): 7.22 | pEC50 (NCI-H847; [2]): ≥ 5.39 | pEC50 (NCI-H69; [1]): 6.15 | pEC50 (NCI-H69; [2]): ≥ 5.39 | pEC50 (NCI-H196; [1]): 4.41 | pEC50 (NCI-H196; [2]): < 5.39 | pEC50 (DMS 53; [1]): 5.80 | pEC50 (DMS 53; [2]): ≥ 5.39 | pEC50 (NCI-H1672; [1]): 6.15 | pEC50 (NCI-H1672; [2]): ≥ 5.39 | pEC50 (NCI-H82; [1]): 4.65 | pEC50 (NCI-H82; [2]): < 5.39 | pEC50 (NCI-H524; [1]): 7.10 | pEC50 (NCI-H524; [2]): ≥ 5.39 | pEC50 (NCI-H146; [1]): 6.96 | pEC50 (NCI-H146; [2]): ≥ 5.39
